Data published in US9873704B2, “Heterocyclic compounds and their uses” (Amgen Inc., priority 2009, dated 2018).

What follows are compounds tested against T1, PI3Kδ (Homo sapiens, UniProt O00329) (assay: PI3Kδ Alphascreen assay).
T1 construct: Full length p110 subunits of PI3k α, β and δ, N-terminally labeled with polyHis tag; polyHis (N); made in house; host or cells: Sf9 insect cells (baculovirus)
Type: biochemical
Description: Full length p110 subunits of PI3k α, β and δ, N-terminally labeled with polyHis tag, were coexpressed with p85 with Baculo virus expression vectors in sf9 insect cells. P110/p85 heterodimers were purified by sequential Ni-NTA, Q-HP, Superdex-100 chromatography. Purified α, β and δ isozymes were stored at −20° C. in 20 mM Tris, pH 8, 0.2M NaCl, 50% glycerol, 5 mM DTT, 2 mM Na cholate. […] The γ isozyme was purified by sequential Ni-NTA, Superdex-200, Q-HP chromatography. The γ isozyme was stored frozen at −80° C. in NaH2PO4, pH 8, 0.2M NaCl, 1% ethylene glycol, 2 mM β-mercaptoethanol.
A PI3K Alphascreen® assay (PerkinElmer, Waltham, Mass.) was used to measure the activity of a panel of four phosphoinositide 3-kinases: PI3Kα, PI3Kβ, PI3Kγ, and PI3Kδ. Enzyme reaction buffer was prepared using sterile water (Baxter, Deerfield, Ill.) and 50 mM Tris HCl pH 7, 14 mM MgCl2, 2 mM sodium cholate, and 100 mM NaCl. 2 mM DTT was added fresh the day of the experiment. The Alphascreen buffer was made using sterile water and 10 mM Tris HCl pH 7.5, 150 mM NaCl, 0.10% Tween 20, and 30 mM EDTA. 1 mM DTT was added fresh the day of the experiment. Compound source plates used for this assay were 384-well Greiner clear polypropylene plates containing test compounds at 5 mM and diluted 1:2 over 22 concentrations. Columns 23 and 24 contained only DMSO as these wells comprised the positive and negative controls, respectively. Source plates were replicated by transferring 0.5 uL per well into 384-well Optiplates (PerkinElmer, Waltham, Mass.).
Each PI3K isoform was diluted in enzyme reaction buffer to 2× working stocks. […] PI(4,5)P2 (Echelon Biosciences, Salt Lake City, Utah) was diluted to 10 μM and ATP was diluted to 20 μM. This 2× stock was used in the assays for PI3Kα and PI3Kβ. For assay of PI3Kγ and PI3Kδ, PI(4,5)P2 was diluted to 10 μM and ATP was diluted to 8 μM to prepare a similar 2× working stock. Alphascreen reaction solutions were made using beads from the anti-GST Alphascreen kit (PerkinElmer, Waltham, Mass.). Two 4× working stocks of the Alphascreen reagents were made in Alphascreen reaction buffer. In one stock, biotinylated-IP4 (Echelon Biosciences, Salt Lake City, Utah) was diluted to 40 nM and streptavidin-donor beads were diluted to 80 μg/mL. In the second stock, PIP3-binding protein (Echelon Biosciences, Salt Lake City, Utah) was diluted to 40 nM and anti-GST-acceptor beads were diluted to 80 μg/mL.
10 μL/well of the appropriate substrate 2× stock (containing 20 μM ATP for the PI3Kα and β assays and containing 8 μM ATP for the PI3Kγ and δ assays) was then added to Columns 1-24 of all plates. Plates were then incubated at room temperature for 20 minutes. In the dark, 10 μL/well of the donor bead solution was added to columns 1-24 of the plates to quench the enzyme reaction. The plates were incubated at room temperature for 30 minutes. Still in the dark, 10 μL/well of the acceptor bead solution was added to columns 1-24 of the plates. The plates were then incubated in the dark for 1.5 hours. The plates were read on an Envision multimode Plate Reader (PerkinElmer, Waltham, Mass.) using a 680 nm excitation filter and a 520-620 nm emission filter.

T1 sequence (O00329 whole entry): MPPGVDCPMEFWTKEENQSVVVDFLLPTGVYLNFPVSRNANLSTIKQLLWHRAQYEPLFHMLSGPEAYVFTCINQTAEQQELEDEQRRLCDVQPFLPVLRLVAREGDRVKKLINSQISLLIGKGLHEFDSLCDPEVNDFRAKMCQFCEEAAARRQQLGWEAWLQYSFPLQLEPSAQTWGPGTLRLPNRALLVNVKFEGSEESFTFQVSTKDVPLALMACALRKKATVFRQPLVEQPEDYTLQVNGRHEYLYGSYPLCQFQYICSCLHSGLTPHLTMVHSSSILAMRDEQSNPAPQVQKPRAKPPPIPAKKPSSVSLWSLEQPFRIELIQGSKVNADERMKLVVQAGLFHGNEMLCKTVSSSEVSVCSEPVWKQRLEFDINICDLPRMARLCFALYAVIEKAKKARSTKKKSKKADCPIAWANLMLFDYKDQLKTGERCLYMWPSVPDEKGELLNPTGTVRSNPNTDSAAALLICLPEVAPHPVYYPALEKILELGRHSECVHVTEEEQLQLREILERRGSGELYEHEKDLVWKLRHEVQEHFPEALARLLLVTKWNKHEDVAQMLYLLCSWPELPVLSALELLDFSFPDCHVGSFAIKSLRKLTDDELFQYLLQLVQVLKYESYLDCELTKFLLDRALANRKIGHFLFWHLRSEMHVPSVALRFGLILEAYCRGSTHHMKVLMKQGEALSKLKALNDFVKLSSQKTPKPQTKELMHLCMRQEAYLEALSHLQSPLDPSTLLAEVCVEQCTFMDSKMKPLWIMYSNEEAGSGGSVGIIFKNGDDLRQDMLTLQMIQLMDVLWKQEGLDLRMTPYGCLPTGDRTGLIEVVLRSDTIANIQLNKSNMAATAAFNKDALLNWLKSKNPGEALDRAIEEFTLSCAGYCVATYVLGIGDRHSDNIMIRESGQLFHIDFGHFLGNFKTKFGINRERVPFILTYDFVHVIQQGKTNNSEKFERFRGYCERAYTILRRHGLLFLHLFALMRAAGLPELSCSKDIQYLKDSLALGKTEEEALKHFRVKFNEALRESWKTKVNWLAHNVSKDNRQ
T1 sequence (P27986 whole entry partner): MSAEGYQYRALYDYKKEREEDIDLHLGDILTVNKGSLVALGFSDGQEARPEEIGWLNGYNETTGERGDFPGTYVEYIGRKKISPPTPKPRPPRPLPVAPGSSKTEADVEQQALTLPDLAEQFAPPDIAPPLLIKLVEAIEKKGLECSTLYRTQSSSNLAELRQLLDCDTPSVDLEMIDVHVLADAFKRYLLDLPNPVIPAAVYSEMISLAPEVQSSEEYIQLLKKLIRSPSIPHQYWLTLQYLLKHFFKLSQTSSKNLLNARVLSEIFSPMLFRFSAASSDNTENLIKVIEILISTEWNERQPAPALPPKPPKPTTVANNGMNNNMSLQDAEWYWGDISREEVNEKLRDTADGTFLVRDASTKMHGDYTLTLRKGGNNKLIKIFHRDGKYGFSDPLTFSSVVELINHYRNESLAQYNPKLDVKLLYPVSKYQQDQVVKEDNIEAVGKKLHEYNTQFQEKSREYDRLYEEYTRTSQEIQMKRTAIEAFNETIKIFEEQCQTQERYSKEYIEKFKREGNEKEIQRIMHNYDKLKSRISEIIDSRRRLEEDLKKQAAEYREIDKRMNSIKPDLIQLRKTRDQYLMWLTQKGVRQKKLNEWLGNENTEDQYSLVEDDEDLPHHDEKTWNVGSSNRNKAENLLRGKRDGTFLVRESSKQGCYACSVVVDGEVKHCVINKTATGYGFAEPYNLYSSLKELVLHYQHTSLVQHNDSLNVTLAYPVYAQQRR

Row | Compound | Ki [nM]
1 | CC(Nc1ncnc(N)c1C#N)c1nc2ccncc2cc1-c1ccccn1 (racemic) [4-Amino-6-(((1S, 1R)-1-(3-(2-pyridinyl)-1,6-naphthyridin-2-yl)ethyl)amino)-5-pyrimidinecarbonitrile] | 470
2 | CC(Nc1ncnc(N)c1C#N)c1nc2ncccc2cc1-c1ccccn1 (racemic) [4-Amino-6-(((1S, 1R)-1-(3-(2-pyridinyl)-1,8-naphthyridin-2-yl)ethyl)amino)-5-pyrimidinecarbonitrile] | 225
3 | CC(Nc1ncnc2[nH]cnc12)c1nc2ccc(F)cc2cc1-c1ccccn1 (racemic) [N-(1-(6-Fluoro-3-(pyridin-2-yl)quinolin-2-yl)ethyl)-9H-purin-6-amine] | 21.3
4 | C[C@@H](Nc1ncnc(N)c1C#N)c1nc2ccc(F)cc2c(C(=O)N(C)C)c1-c1ccccn1 (stereo in doubt) [2-(1-((6-Amino-5-cyano-4-pyrimidinyl)amino)ethyl)-6-fluoro-N,N-dimethyl-3-(2-pyridinyl)-4-quinolinecarboxamide] | 7.77
5 | CC(Nc1ncnc(N)c1C#N)c1nc2ccc(F)cc2c([S+]([O-])CCO)c1-c1ccccc1 (stereo in doubt) [4-Amino-6-(1-(6-fluoro-4-((R)-2-hydroxyethylsulfinyl)-3-phenylquinolin-2-yl)ethylamino)pyrimidine-5-carbonitrile] | 2.48
6 | CC(Nc1ncnc(N)c1C#N)c1nc2ccc(F)cc2c(C(=O)O)c1-c1ccccn1 (stereo not drawn) [2-1-((6-Amino-5-cyano-4-pyrimidinyl)amino)ethyl)-6-fluoro-3-(2-pyridinyl)-4-quinolinecarboxylic acid] | 119
7 | CC(Nc1ncnc(N)c1C#N)c1nc2ccc(F)cc2c(C(=O)O)c1-c1ccccc1 (stereo not drawn) [2-(1-(6-Amino-5-cyanopyrimidin-4-ylamino)ethyl)-6-fluoro-3-phenylquinoline-4-carboxylic acid] | 74.2
8 | CC(Nc1ncnc(N)c1C#N)c1nc2ccc(F)cc2c(C(=O)NCC2CC2)c1-c1ccccc1 (stereo not drawn) [2-(1-(6-Amino-5-cyanopyrimidin-4-ylamino)ethyl)-N-(cyclopropylmethyl)-6-fluoro-3-phenylquinoline-4-carboxamide] | 5.15
9 | CC(Nc1ncnc(N)c1C(N)=O)c1nc2ccc(F)cc2c(C(=O)O)c1-c1ccccc1 (stereo not drawn) [2-(1-(6-amino-5-carbamoylpyrimidin-4-ylamino)ethyl)-6-fluoro-3-phenylquinoline-4-carboxylic acid] | 7.16
10 | CC(Nc1ncnc(N)c1C#N)c1nc2ccc(F)cc2c(C(=O)NCCN2CCOCC2)c1-c1ccccc1 (stereo not drawn) [2-(1-((6-Amino-5-cyano-4-pyrimidinyl)amino)ethyl)-6-fluoro-N-(2-(4-morpholinyl)ethyl)-3-phenyl-4-quinolinecarboxamide] | 1.02
11 | C[C@@H](Nc1ncnc(N)c1C#N)c1nc2ccc(F)cc2c(C#N)c1-c1ccccc1 [2-((1R)-1-((6-Amino-5-cyano-4-pyrimidinyl)amino)ethyl)-6-fluoro-3-phenyl-4-quinolinecarbonitrile] | 59.1
12 | C[C@@H](Nc1ncnc(N)c1C#N)c1nc2cccc(C#N)c2cc1-c1ccccn1 [2-((1R)-1-((6-amino-5-cyano-4-pyrimidinyl)amino)ethyl)-3-(2-pyridinyl)-5-quinolinecarbonitrile] | 2640
13 | C[C@H](Nc1ncnc(N)c1C#N)c1nc2cccc(C#N)c2cc1-c1ccccn1 [2-((1S)-1-((6-Amino-5-cyano-4-pyrimidinyl)amino)ethyl)-3-(2-pyridinyl)-5-quinolinecarbonitrile] | 14.1
14 | C[C@@H](c1nc2ccc(F)cc2cc1-c1cncc(F)c1)n1nc(C#N)c2c(N)ncnc21 [4-Amino-1-((S)-1-(6-fluoro-3-(5-fluoropyridin-3-yl)quinolin-2-yl)ethyl)-1H-pyrazolo[3,4-d]pyrimidine-3-carbonitrile] | 25
15 | CC(Nc1ncnc(N)c1C#N)c1nc2ccc(F)cc2c(S(C)(=O)=O)c1-c1cc(F)cc(F)c1 (stereo not drawn) [4-Amino-6-(1-(3-(3,5-difluorophenyl)-6-fluoro-4-(methylsulfonyl)quinolin-2-yl)ethylamino)pyrimidine-5-carbonitrile] | 1.12
